The series in a line: Solubility in PGMEA/MMP: deposition of crystals when the solution is allowed to stand at room temperature. The class given is physicochemical. To be noted: 70/30 by weight mixture with compound (M1-19-1), 30% by weight solution in PGMEA/MMP=9/1 by volume. An excerpt: Incidentally, PGMEA and MMP stand for propylene glycol […] ether acetate and methyl 3-methoxypropionate, respectively.

Here are results for 1 compound from US8366962B2, “Polymerizable liquid crystal compounds having oxiranyl group, polymerizable liquid crystal compositions and polymers” (JNC Corporation, priority 2009, dated 2013).

For `Cc1cc(OC(=O)c2ccc(OCCCCOCC3(C)CO3)cc2)ccc1OC(=O)c1ccc(OCCCCOCC2(C)CO2)cc1` (stereo not shown) [Compound (1-1-14)], the “time allowed to stand without deposition of crystals” value was “more than 3 days”.
